In patent publication US20220280644A1, “"TRPswitch" - A STEP FUNCTION CHEMO-OPTOGENETIC LIGAND” (UNIVERSITY OF UTAH RESEARCH FOUNDATION, priority 2019, published 2022):

Experiments:
[1] = system: zebrafish Trpa1b; experiment: Whole-cell patch-clamp of HEK293T cells expressing zebrafish Trpa1b; assay type: cell-based
Experimental: Immortalized HEK293T cells or human colonic fibroblast cells (CCD-18Co; ATCC) were used. HEK293T cells were plated on […] cover slips and transiently transfected with 10 μg of Trpa1b plasmid (pCMV-zTrpa1b-FLAG) (SEQ ID NO:3) and 5 μg of mNeonGreen cDNA (Allele Biotechnology), then grown in a 6 cm plate for 24-48 h. CCD-18Co were cultured in Eagle's minimal essential medium with 10% FBS, 1× penicillin and streptomycin. CCD-18Co cells were plated on 12 mm cover slips and transiently transfected with 5 μg of zTrpa1b plasmid (pCMV-zTrpa1b-FLAG) together with 5 μg of mNeonGreen cDNA (Allele Biotechnology), then grown in a […] plate for 48-72 h. After this time, the cover slips were transferred to a recording chamber containing an extracellular solution composed of 145 mM sodium gluconate, 4 mM KCl, 3 mM MgCl2, 10 mM D-glucose, 10 mM HEPES; pH 7.4 adjusted with NaOH. The internal solution contained 122 mM cesium methane sulfonate, 1.8 mM MgCl2, 9 mM EGTA, 14 mM creatine phosphate (sodium salt), 4 mM Mg-ATP, 0.3 mM Na-GTP, 10 mM HEPES, pH 7.2 adjusted with CsOH. Borosilicate glass pipettes with a resistance of 3-5 MO were used. Whole cell currents were measured on an Axopatch 200B amplifier (Molecular De-vices) under the control of pClamp software. Signals were digitized through a Digidata1550B interface (Molecular Devices). Currents were filtered at 5 kHz (lowpass, Bessel) and sampled at 10 kHz prior to analysis with Clampfit software (Molecular Devices). All the plots and statistical tests were performed on Excel (Microsoft corp.). Basal Trpa1b whole cell currents were measured with a ramp protocol (˜100 to +100 mV, at a holding potential of 0 mV). Photoactive compounds were perfused into the recording chamber and a fluorescent light generated by mercury vapor short arc (U-HGLGPS, OLYMPUS) filtered through an ET-ECFP 434/17 nm filter and through a ET-mCherry 560 nm filter (Chroma Technology) was switched “on” and “off” for 10 s. All experiments were performed at room temperature. The p values were calculated using a two-tailed, paired Student's t-test.

[2] = biological target: T1, endogenous human TRPA1 (Homo sapiens, UniProt O75762); experiment: Whole cell current in untransfected CCD-18Co cells; assay type: cell-based; conditions: untransfected CCD-18Co
T1 construct: human colonic fibroblast cells, CCD-18Co, which express human TRPA1 endogenously; endogenous in cells; host or cells: CCD-18Co (ATCC), untransfected
T1 sequence (O75762 whole entry): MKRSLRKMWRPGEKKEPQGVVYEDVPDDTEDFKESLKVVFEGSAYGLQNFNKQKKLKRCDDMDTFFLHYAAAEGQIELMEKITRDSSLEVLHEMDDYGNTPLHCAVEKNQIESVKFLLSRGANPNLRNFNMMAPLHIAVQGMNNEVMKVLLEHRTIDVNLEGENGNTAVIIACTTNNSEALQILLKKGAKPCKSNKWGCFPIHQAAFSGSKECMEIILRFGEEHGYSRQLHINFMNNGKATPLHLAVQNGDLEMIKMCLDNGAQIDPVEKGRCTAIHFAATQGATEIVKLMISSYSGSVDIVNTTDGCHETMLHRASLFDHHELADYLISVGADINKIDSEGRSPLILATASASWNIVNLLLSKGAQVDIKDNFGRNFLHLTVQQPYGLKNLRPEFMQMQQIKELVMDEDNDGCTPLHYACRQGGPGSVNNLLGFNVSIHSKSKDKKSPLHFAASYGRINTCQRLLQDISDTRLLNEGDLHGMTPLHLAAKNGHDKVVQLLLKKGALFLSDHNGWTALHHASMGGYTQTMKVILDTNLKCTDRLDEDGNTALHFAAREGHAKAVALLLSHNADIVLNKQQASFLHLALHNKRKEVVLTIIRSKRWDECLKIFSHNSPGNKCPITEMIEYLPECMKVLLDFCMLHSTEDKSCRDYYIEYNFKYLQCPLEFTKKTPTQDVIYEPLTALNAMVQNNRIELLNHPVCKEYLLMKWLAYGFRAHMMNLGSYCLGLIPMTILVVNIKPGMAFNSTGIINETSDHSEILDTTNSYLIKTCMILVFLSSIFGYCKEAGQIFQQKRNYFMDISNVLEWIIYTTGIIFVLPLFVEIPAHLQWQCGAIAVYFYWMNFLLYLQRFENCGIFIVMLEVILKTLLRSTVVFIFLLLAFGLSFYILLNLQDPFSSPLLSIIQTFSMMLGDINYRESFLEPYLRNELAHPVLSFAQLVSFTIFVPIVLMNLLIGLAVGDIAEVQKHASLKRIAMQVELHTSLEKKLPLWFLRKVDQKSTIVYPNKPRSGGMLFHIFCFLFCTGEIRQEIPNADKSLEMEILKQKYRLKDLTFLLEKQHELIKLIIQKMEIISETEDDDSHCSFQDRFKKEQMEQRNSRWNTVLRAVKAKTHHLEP
Experimental: Immortalized HEK293T cells or human colonic fibroblast cells (CCD-18Co; ATCC) were used. HEK293T cells were plated on […] cover slips and transiently transfected with 10 μg of Trpa1b plasmid (pCMV-zTrpa1b-FLAG) (SEQ ID NO:3) and 5 μg of mNeonGreen cDNA (Allele Biotechnology), then grown in a 6 cm plate for 24-48 h. CCD-18Co were cultured in Eagle's minimal essential medium with 10% FBS, 1× penicillin and streptomycin. CCD-18Co cells were plated on 12 mm cover slips and transiently transfected with 5 μg of zTrpa1b plasmid (pCMV-zTrpa1b-FLAG) together with 5 μg of mNeonGreen cDNA (Allele Biotechnology), then grown in a […] plate for 48-72 h. After this time, the cover slips were transferred to a recording chamber containing an extracellular solution composed of 145 mM sodium gluconate, 4 mM KCl, 3 mM MgCl2, 10 mM D-glucose, 10 mM HEPES; pH 7.4 adjusted with NaOH. The internal solution contained 122 mM cesium methane sulfonate, 1.8 mM MgCl2, 9 mM EGTA, 14 mM creatine phosphate (sodium salt), 4 mM Mg-ATP, 0.3 mM Na-GTP, 10 mM HEPES, pH 7.2 adjusted with CsOH. […] Whole cell currents were measured on an Axopatch 200B amplifier (Molecular De-vices) under the control of pClamp software. […] Basal Trpa1b whole cell currents were measured with a ramp protocol (˜100 to +100 mV, at a holding potential of 0 mV). […] The p values were calculated using a two-tailed, paired Student's t-test.

[3] = UV-Vis absorbance, E/Z isomerization with violet and green light; assay type: physicochemical; conditions: UV-Vis absorbance in DMSO
Experimental: Compounds were dissolved in DMSO at 250 μM and 260 μM for TRPswitch-A and TRPswitch-B, respectively and UV-Vis absorbance was measured using a NanoDrop 1000 (Thermo Scientific).

[4] = Photostationary state (PSS) determination; assay type: physicochemical; conditions: for 365 nm PSS / 420 nm PSS / 495 nm PSS: estimated, UV/Vis spectroscopy in DMSO
Description: […] In the latter case, the pure Z isomer spectrum was estimated using methods described in previous publications.

[5] = system: wild-type zebrafish larvae; experiment: Behavioral assay: light-induced motion response of wild-type larvae; assay type: in vivo, Zebrafish (Danio rerio); conditions: for light-induced motion response (in vivo activity): 3 dpf wild-type larvae, 1 s flashes WL1-WL4
Experimental: A total of 1,000 compounds were selected from the ChemBridge Corp. catalog. Compounds were dissolved in DMSO at a stock concentration of 1 μg/μL (˜1.5 mM). The library was screened at a 1:100 dilution in E3 solution for a final concentration of ˜15 μM. Negative controls were treated with an equal volume of DMSO. Groups of 3 larvae at 3 days post fertilization (dpf) were distributed into the wells of 96-well clear bottom black microplates (07-200-567; Fisher Scientific) in 150 μL E3 before the addition of small molecules. Stock solutions of compounds were added directly to zebrafish in the wells of a 96 well plate (Corning 3631), mixed, and allowed to incubate for 1 h in the dark at 28.5° C. prior to behavioral evaluation in the behavioral assay. Ordering information: 1 (5533696; ChemBridge); 3 (5538408; ChemBridge).
Larvae in each of the wells were exposed to four 1 second flashes of light stimulus in the following order: 450-500 nm (WL1), 415-455 nm (WL2), 352-402 nm (WL3), white light (WL4), with a 5 second inter-stimulus interval. Digital video recording was performed for 5 seconds before the first light stimuli and continued throughout the stimulation sequence. Band pass filters (Semrock FF02-475/50, FF02-435/40, FF01-377/50) were used to restrict the excitation light to the indicated wavelengths. […] 290 frames of digital video were recorded per well at 10 FPS using an EMCCD camera (C9100; Hamamatsu) mounted on an inverted compound microscope (AxioObserver A1; Zeiss) with a NA 0.03 1.25× objective and a barrier with a 0.7 mm diameter opening to restrict light scattering to the sample. MetaMorph software (Molecular Devices) was used to control the execution of TTL signals and camera capture using the built-in stream acquisition with trigger function. Each video was saved for review. Light stimuli were generated with an ozone free 300-Watt xenon bulb housed in a Lambda LS illuminator (Sutter Instruments). A dichroic mirror (T510LPXRXT; Chroma) was used for appropriate excitation of samples and bright field acquisition. Schott longpass absorption glass (RG610; Chroma) was added in the transmitted light path to reduce unwanted excitation to the well and to provide sufficient light for video recording. All behavioral experiments were conducted at room temperature. […]
To analyze digital video recordings, custom MetaMorph software scripts were used to automatically threshold the video to identify the area of larvae in each frame. Threshold images of the frames after each light activation event were overlaid to calculate a new combined threshold area. The motion index was calculated as the percentage change between the threshold area in the frame right before light activation and the new combined threshold area. This motion index correlates with the overall amount of motion in the well.

[6] = system: Trpa1b; experiment: Heartbeat interruption in larvae expressing Trpa1b in cardiomyocytes; assay type: in vivo, zebrafish; conditions: 20 μM
Experimental: Heartbeat interruption experiments were performed in vivo on 2 dpf Tg(cm/c2:Trpa1b-2A-EGFP) larvae in a Trpa1b^−/− background. Larvae were pretreated with 20 μM of TRPswitch-A or TRPswitch-B in E3 at a final concentration of 1% DMSO for 1 h in the dark at 28.5° C. before experimental manipulation. Immediately prior to the onset of experiments, E3 solution was replaced with 0.2 mg/mL tricaine (Sigma, A5040) in E3 for anesthetizing the larvae. Violet light (352-402 nm) and green light (500-600 nm) were used for E to Z and Z to E isomerization, respectively. Violet and green light excitation were achieved using a band pass filter FF01-377/50 and an et500lp long pass barrier filter, respectively, together with a t600plxxr dichroic mirror and a 300-Watt xenon bulb light source (Sutter Instrument). Experiments were performed using a NA 0.6 40× air objective at room temperature. The zebrafish heart in the whole field of view was illuminated with 1 s violet light followed by various lengths of green light as indicated. Ventricle width measurement was performed using the ImageJ ‘measure’ function on the widest outer ventricle width every 100 ms.

[7] = Aqueous solubility observation; assay type: physicochemical
[8] = Z→E thermal isomerisation kinetics; assay type: physicochemical
Experimental: In order to determine the Z→E thermal isomerisation kinetics in DMSO-d6 a ˜20 mM solution of the relevant compound was irradiated using a Luzchem LZC-4V photoreactor fitted with 12×8 W LZC-420 lamps (420 nm peak emission) until no further change was observable by ^1H NMR. For 30% water:DMSO samples, a 15 μM solution of the relevant compound was irradiated in a quartz cuvette using 365 nm LEDs (3×800 mW Nichia NCSU276A) until no further change was observed by UV-Vis spectroscopy. Compounds (˜25 μM solutions in DMSO) were treated analogously. In the case of compounds studied by NMR, the change in Z-isomer percentage was followed as a function of time through integration of the relevant peaks. […]
For data collected via ^1H NMR, the natural log of the Z isomer concentration was plotted against time to yield a straight line implying first order kinetics. The gradient of this line was used to determine the rate constant for Z→E conversion from which the thermal half-life could be calculated:
For data collected via UV-Vis Spectroscopy, absorbance data at a fixed wavelength was fitted using the following, first order equation: […]
where k represents the rate constant; A∞, A0 and At are the absorbances of the pure E-state, Z-rich state, and time t, respectively. […]

[9] = UV-Vis spectroscopy in 30% water:DMSO, extrapolated pure Z spectrum, listed as TRPswitch-A

| SMILES | 365 nm PSS [4] | 420 nm PSS [4] | 495 nm PSS [4] | light-induced motion response (in vivo activity) [5] | also measured |
| --- | --- | --- | --- | --- | --- |
| C=CCN=C=S [AITC, allyl isothiocyanate, reference compound] |  |  |  |  | agonist-activated Trpa1b currents ([1]; positive control): activated currents; response of human TRPA1 current [2]: responded |
| O=C(Nc1ccc(/N=N/c2ccccc2)c(NC(=O)c2ccco2)c1)c1ccco1 [Compound 1, (E)-N,N′-(4-(phenyldiazenyl)-1,3-phenylene)bis(furan-2-carboxamide)] |  |  |  | light-induced motion response across multiple wavelengths | E/Z photoswitching with violet and green light [3]: incomplete; Trpa1b current upon violet light stimulation ([1]; 10 μM, compared to baseline): high amplitude currents; Trpa1b photocurrent upon subsequent green light stimulation ([1]; 10 μM, same cell): recovered to its baseline current magnitude; current density fold increment after subsequent pulse of green light ([1]; +100 mV): 1.15±0.17 fold; current density fold increment upon violet light illumination ([1]; +100 mV): 2.36±0.50 fold; current density fold increment after subsequent pulse of green light ([1]; −100 mV): 3.71±1.31 fold; current density fold increment upon violet light illumination ([1]; −100 mV): 4.35±1.44 fold; 365 nm PSS (E-Z) ([4]; 1H NMR in DMSO-d6): 79% Z; 420 nm PSS (E-Z) ([4]; 1H NMR in DMSO-d6): 53% Z; 495 nm PSS (Z-E) ([4]; 1H NMR in DMSO-d6): 71% E; Estimated 365 nm PSS (E-Z) [4, 9]: 86% Z; Estimated 495 nm PSS (Z-E) [4, 9]: 73% E; bandwidth with the most activity ([5]; light-induced motion response): 415-455 nm; ventricle heartbeat after 1 s violet light ([6]; 1 h pre-incubation): could be stopped; ventricular rhythm after 1 s green light ([6]; after violet light): re-stored |
| O=C(Nc1ccccc1/N=N/c1ccccc1)c1ccco1 [Compound 2, (E)-N-(2-(phenyldiazenyl)phenyl)furan-2-carboxamide] | 13% E | 56% E | 79% E | reduced activity |  |
| N#Cc1ccc(/N=N/c2ccc(NC(=O)c3ccco3)cc2NC(=O)c2ccco2)cc1 [Compound 4, (E)-N,N′-(4-((4-cyanophenyl)diazenyl)-1,3-phenylene)bis(furan-2-carboxamide)] | 47% E | 32% E | 61% E | far less active |  |
| O=C(Nc1ccc(/N=N/c2ccc([N+](=O)[O-])cc2)c(NC(=O)c2ccco2)c1)c1ccco1 [Compound 6, (E)-N,N′-(4-((4-nitrophenyl)diazenyl)-1,3-phenylene)bis(furan-2-carboxamide)] | 66% E | 42% E | 64% E | far less active |  |
| Cc1nn(C)c(C)c1/N=N/c1ccc(NC(=O)c2ccco2)cc1NC(=O)c1ccco1 [Compound 8, (E)-N,N′-(4-((1,3,5-trimethyl-1H-pyrazol-4-yl)diazenyl)-1,3-phenylene)bis(furan-2-carboxamide)] |  |  |  |  | E/Z photoswitching with violet and green light [3]: quantitative photoswitching in both directions; aqueous solubility [7]: some aqueous solubility issues; thermal half-lives [8]: long thermal half-lives |

More lines, main results first:

| 365 nm PSS [4] | 420 nm PSS [4] | 495 nm PSS [4] | SMILES | light-induced motion response (in vivo activity) [5] | also measured |
| --- | --- | --- | --- | --- | --- |
| 22% E | 38% E | 76% E | O=C(Nc1ccc(/N=N/c2ccccc2)c(NC(=O)c2cccs2)c1)c1cccs1 [Compound 3, (E)-N,N′-(4-(phenyldiazenyl)-1,3-phenylene)bis(thiophene-2-carboxamide)] | slightly lower photoresponse |  |
| 41% E | 30% E | 61% E | N#Cc1ccc(/N=N/c2ccc(NC(=O)c3cccs3)cc2NC(=O)c2cccs2)cc1 [Compound 5, (E)-N,N′-(4-((4-cyanophenyl)diazenyl)-1,3-phenylene)bis(thiophene-2-carboxamide)] | far less active |  |
| 69% E | 46% E | 70% E | O=C(Nc1ccc(/N=N/c2ccc([N+](=O)[O-])cc2)c(NC(=O)c2cccs2)c1)c1cccs1 [Compound 7, (E)-N,N′-(4-((4-nitrophenyl)diazenyl)-1,3-phenylene)bis(thiophene-2-carboxamide)] | far less active |  |
